The results in this text go back to patent publication US9771341B2, “Piperazine carbamates and methods of making and using same” (Abide Therapeutics, Inc., priority 2015, dated 2017).

Where only a bound is given, the exact number is not on record here.

What all share (type): biochemical
The target of assay [1] is T1, MAGL (Mus musculus, UniProt O35678).
T1 construct: Proteomes (mouse brain membrane fraction or cell lysates); from tissue; host or cells: mouse brain membrane fraction (or unspecified cell lysates)
T1 sequence (O35678 1-303): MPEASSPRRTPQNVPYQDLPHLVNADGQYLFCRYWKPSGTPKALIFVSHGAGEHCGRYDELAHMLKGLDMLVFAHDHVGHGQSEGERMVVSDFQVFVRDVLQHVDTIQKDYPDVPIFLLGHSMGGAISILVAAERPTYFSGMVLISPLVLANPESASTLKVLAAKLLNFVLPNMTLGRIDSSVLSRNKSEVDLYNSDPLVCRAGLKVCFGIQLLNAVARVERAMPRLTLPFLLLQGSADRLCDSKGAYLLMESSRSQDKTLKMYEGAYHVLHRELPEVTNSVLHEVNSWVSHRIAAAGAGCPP
Briefly: In vitro competitive activity-based protein profiling (mouse), MAGL. The conditions noted are these: for IC50: mouse brain membrane fraction or cell lysates, 30 min preincubation at 37° C, FP-Rh probe; for inhibition at 1 µM: mouse proteome, in vitro, read-out: % Inhibition at 1 μM MAGL. As to the method: (§1) In Vitro Competitive Activity-Based Protein Profiling (Mouse).
(§2) Proteomes (mouse brain membrane fraction or cell lysates) (50 μL, 1.0 mg/mL total protein concentration) were preincubated with varying concentrations of inhibitors at 37° C. After 30 min, FP-Rh (1.0 μL, 50 μM in DMSO) was added and the mixture was incubated for another 30 min at 37° C. Reactions were quenched with SDS loading buffer (50 μL-4×) and run on SDS-PAGE.

For assay [2], the target named is T2, FAAH (Mus musculus, UniProt O08914).
T2 construct: Proteomes (mouse brain membrane fraction or cell lysates); from tissue; host or cells: mouse brain membrane fraction (or unspecified cell lysates)
T2 sequence (O08914 1-579): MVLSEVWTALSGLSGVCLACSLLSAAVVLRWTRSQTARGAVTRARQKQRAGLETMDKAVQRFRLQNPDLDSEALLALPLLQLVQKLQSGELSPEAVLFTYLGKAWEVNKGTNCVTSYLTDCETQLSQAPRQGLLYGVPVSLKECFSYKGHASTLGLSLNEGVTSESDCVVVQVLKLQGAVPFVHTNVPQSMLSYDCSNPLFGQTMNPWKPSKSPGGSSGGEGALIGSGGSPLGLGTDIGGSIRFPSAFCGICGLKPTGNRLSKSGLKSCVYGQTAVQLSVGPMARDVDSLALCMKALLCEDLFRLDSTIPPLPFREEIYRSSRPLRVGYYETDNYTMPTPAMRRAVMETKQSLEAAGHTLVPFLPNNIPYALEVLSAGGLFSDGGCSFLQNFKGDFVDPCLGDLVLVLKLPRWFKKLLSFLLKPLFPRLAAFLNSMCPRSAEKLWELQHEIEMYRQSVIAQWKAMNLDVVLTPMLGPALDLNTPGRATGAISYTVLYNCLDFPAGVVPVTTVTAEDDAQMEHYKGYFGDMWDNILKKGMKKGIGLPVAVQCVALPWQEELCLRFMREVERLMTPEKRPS
Briefly: In vitro competitive activity-based protein profiling (mouse), FAAH. Particulars: for IC50: mouse brain membrane fraction or cell lysates, 30 min preincubation at 37° C, FP-Rh probe; for inhibition at 1 µM: mouse proteome, in vitro. As to the method: as §1
Proteomes (mouse brain membrane fraction or cell lysates) (50 μL, 1.0 mg/mL total protein concentration) were preincubated with varying concentrations of inhibitors at 37° C. After 30 min, FP-Rh (1.0 μL, 50 μM in DMSO) was added and the mixture was incubated for another 30 min at 37° C. Reactions were quenched with SDS loading buffer (50 μL-4×) and run on SDS-PAGE. Following gel imaging, serine hydrolase activity was determined by measuring fluorescent intensity of gel bands corresponding to MAGL, ABHD6 and FAAH using ImageJ 1.43u software.

The target of assay [3] is T3, ABHD6 (Mus musculus, UniProt Q8R2Y0).
T3 construct: Proteomes (mouse brain membrane fraction or cell lysates); from tissue; host or cells: mouse brain membrane fraction (or unspecified cell lysates)
T3 sequence (Q8R2Y0 1-336): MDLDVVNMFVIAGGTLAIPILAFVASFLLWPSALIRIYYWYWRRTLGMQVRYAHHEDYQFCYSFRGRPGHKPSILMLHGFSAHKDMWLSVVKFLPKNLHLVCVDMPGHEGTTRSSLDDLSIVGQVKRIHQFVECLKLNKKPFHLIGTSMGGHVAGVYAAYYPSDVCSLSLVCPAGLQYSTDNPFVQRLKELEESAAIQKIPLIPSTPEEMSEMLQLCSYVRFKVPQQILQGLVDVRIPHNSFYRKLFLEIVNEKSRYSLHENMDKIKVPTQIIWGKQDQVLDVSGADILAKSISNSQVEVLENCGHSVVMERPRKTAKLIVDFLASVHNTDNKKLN
Briefly: In vitro competitive activity-based protein profiling (mouse), ABHD6. The conditions noted are these: for IC50: mouse brain membrane fraction or cell lysates, 30 min preincubation at 37° C, FP-Rh probe; for inhibition at 1 µM: mouse proteome, in vitro, read-out: % Inhibition at 1 μM ABHD6. As to the method:
as §1, §2

For the compound `C#CCO[C@@H]1CCN(c2cc(C(F)(F)F)ccc2CN2CCN(C(=O)OC(C(F)(F)F)C(F)(F)F)CC2)C1` [Example 2, 1,1,1,3,3,3-hexafluoropropan-2-yl (R)-4-(2-(3-(prop-2-yn-1-yloxy)pyrrolidin-1-yl)-4-(trifluoromethyl)benzyl)piperazine-1-carboxylate], the IC50 in assay [1] is less than 100 nM; in assay [2], more than 1000 nM; in assay [3], more than 1000 nM.
On to `COC(=O)c1cc(CN2CCN(C(=O)OC(C(F)(F)F)C(F)(F)F)CC2)ccc1N1CCOCC1` [Example 5, 1,1,1,3,3,3-hexafluoropropan-2-yl 4-(3-(methoxycarbonyl)-4-morpholinobenzyl)piperazine-1-carboxylate], for which the IC50 in assay [1] is less than 100 nM; in assay [2] it was more than 1000 nM; in assay [3], 100 to 1000 nM.
Take `COc1c(CN2CCN(C(C)=O)CC2)cccc1CN1CCN(C(=O)OC(C(F)(F)F)C(F)(F)F)CC1` [Example 7, 1,1,1,3,3,3-hexafluoropropan-2-yl 4-(3-((4-acetylpiperazin-1-yl)methyl)-2-methoxybenzyl)piperazine-1-carboxylate]: the inhibition at 1 µM in assay [1] is more than 75%; in assay [2], less than 25%; in assay [3], more than 75%. Moreover, the results for the IC50 in assay [1], in assay [2] and in assay [3] were 100 to 1000 nM, more than 1000 nM and 100 to 1000 nM, respectively.
On to `Cc1c(CN2CCN(C(=O)OC(C(F)(F)F)C(F)(F)F)CC2)cccc1CN1CCN(S(C)(=O)=O)CC1` [Example 8, 1,1,1,3,3,3-hexafluoropropan-2-yl 4-(2-methyl-3-((4-(methylsulfonyl)piperazin-1-yl)methyl)benzyl)piperazine-1-carboxylate], for which the inhibition at 1 µM in assay [1] is more than 75%; in assay [2] it was less than 25%; in assay [3] it was more than 75%. Further, the values for the IC50 in assay [1], in assay [2] and in assay [3] were less than 100 nM, more than 1000 nM and less than 100 nM, respectively.
Turning to `COc1c(CN2CCC(F)CC2)cccc1CN1CCN(C(=O)OC(C(F)(F)F)C(F)(F)F)CC1` [Example 9, 1,1,1,3,3,3-hexafluoropropan-2-yl 4-(3-((4-fluoropiperidin-1-yl)methyl)-2-methoxybenzyl)piperazine-1-carboxylate], the inhibition at 1 µM is more than 75% in assay [1], less than 25% in assay [2] and more than 75% in assay [3]. Also, the values for the concentration for half-maximal inhibition (IC50) in assay [1], in assay [2] and in assay [3] were less than 100 nM, more than 1000 nM and 100 to 1000 nM, respectively.
`Cc1c(CN2CCC(NS(C)(=O)=O)CC2)cccc1CN1CCN(C(=O)OC(C(F)(F)F)C(F)(F)F)CC1` [Example 10, 1,1,1,3,3,3-hexafluoropropan-2-yl 4-(2-methyl-3-((4-(methylsulfonamido)piperidin-1-yl)methyl)benzyl)piperazine-1-carboxylate]: the inhibition at 1 µM in assay [1] is more than 75%; in assay [2], less than 25%; in assay [3], more than 75%. For the same compound, the IC50 in assay [1] is less than 100 nM; in assay [2], more than 1000 nM; in assay [3], 100 to 1000 nM.
Take `CC(=O)NC1CCN(Cc2cccc(CN3CCN(C(=O)OC(C(F)(F)F)C(F)(F)F)CC3)c2C)CC1` [Example 11, 1,1,1,3,3,3-hexafluoropropan-2-yl 4-(3-((4-acetamidopiperidin-1-yl)methyl)-2-methylbenzyl)piperazine-1-carboxylate]: the inhibition at 1 µM in assay [1] was more than 75%; in assay [2] it was less than 25%; in assay [3], 25 to 75%. Also, the IC50 in assay [1] was 100 to 1000 nM; in assay [2], more than 1000 nM; in assay [3] it was 100 to 1000 nM.
In the case of `Cc1c(CN2CCN(C(=O)OC(C(F)(F)F)C(F)(F)F)CC2)cccc1CN1CCC(F)(F)CC1` [Example 12, 1,1,1,3,3,3-hexafluoropropan-2-yl 4-(3-((4,4-difluoropiperidin-1-yl)methyl)-2-methylbenzyl)piperazine-1-carboxylate], the inhibition at 1 µM was more than 75% in assay [1], less than 25% in assay [2] and more than 75% in assay [3]. The IC50 in assay [1] is less than 100 nM; in assay [2], more than 1000 nM; in assay [3], 100 to 1000 nM.
In the case of `Cc1c(CN2CCCC2)cccc1CN1CCN(C(=O)OC(C(F)(F)F)C(F)(F)F)CC1` [Example 13, 1,1,1,3,3,3-hexafluoropropan-2-yl 4-(2-methyl-3-(pyrrolidin-1-ylmethyl)benzyl)piperazine-1-carboxylate], the inhibition at 1 µM in assay [1] was more than 75%; in assay [2], less than 25%; in assay [3] it was more than 75%. Also, the values for the IC50 in assay [1], in assay [2] and in assay [3] were 100 to 1000 nM, more than 1000 nM and 100 to 1000 nM, respectively.
On to `CC(=O)N1CCN(Cc2cccc(CN3CCN(C(=O)OC(C(F)(F)F)C(F)(F)F)CC3)c2C)CC1` [Example 14, 1,1,1,3,3,3-hexafluoropropan-2-yl 4-(3-((4-acetylpiperazin-1-yl)methyl)-2-methylbenzyl)piperazine-1-carboxylate], for which the inhibition at 1 µM is more than 75% in assay [1], less than 25% in assay [2] and more than 75% in assay [3]. Moreover, the IC50 in assay [1] is less than 100 nM; in assay [2], more than 1000 nM; in assay [3], less than 100 nM.
For `Cc1c(CN2CCC(F)CC2)cccc1CN1CCN(C(=O)OC(C(F)(F)F)C(F)(F)F)CC1` [Example 15, 1,1,1,3,3,3-hexafluoropropan-2-yl 4-(3-((4-fluoropiperidin-1-yl)methyl)-2-methylbenzyl)piperazine-1-carboxylate], the figures for the inhibition at 1 µM in assay [1], in assay [2] and in assay [3] were more than 75%, less than 25% and more than 75%, respectively. In addition, the figures for the IC50 in assay [1], in assay [2] and in assay [3] were less than 100 nM, more than 1000 nM and 100 to 1000 nM, respectively.
For the compound `CC(=O)N[C@@H]1CCN(Cc2cccc(CN3CCN(C(=O)OC(C(F)(F)F)C(F)(F)F)CC3)c2C)C1` [Example 17, 1,1,1,3,3,3-hexafluoropropan-2-yl (R)-4-(3-((3-acetamidopyrrolidin-1-yl)methyl)-2-methylbenzyl)piperazine-1-carboxylate], the inhibition at 1 µM in assay [1] was more than 75%; in assay [2], less than 25%; in assay [3], more than 75%. Moreover, the IC50 is 100 to 1000 nM in assay [1], more than 1000 nM in assay [2] and 100 to 1000 nM in assay [3].
With `CC(=O)N[C@H]1CCN(Cc2cccc(CN3CCN(C(=O)OC(C(F)(F)F)C(F)(F)F)CC3)c2C)C1` [Example 18, 1,1,1,3,3,3-hexafluoropropan-2-yl (S)-4-(3-((3-acetamidopyrrolidin-1-yl)methyl)-2-methylbenzyl)piperazine-1-carboxylate], the values for the inhibition at 1 µM in assay [1], in assay [2] and in assay [3] were more than 75%, less than 25% and more than 75%, respectively. Further, the results for the IC50 in assay [1], in assay [2] and in assay [3] were 100 to 1000 nM, more than 1000 nM and 100 to 1000 nM, respectively.
`Cc1c(CN2CCN(C(=O)OC(C(F)(F)F)C(F)(F)F)CC2)cccc1CN1CCCC[C@H]1C` [Example 19, 1,1,1,3,3,3-hexafluoropropan-2-yl (R)-4-(2-methyl-3-((2-methylpiperidin-1-yl)methyl)benzyl)piperazine-1-carboxylate]: the inhibition at 1 µM is more than 75% in assay [1], less than 25% in assay [2] and more than 75% in assay [3]. Besides, the IC50 was 100 to 1000 nM in assay [1], more than 1000 nM in assay [2] and 100 to 1000 nM in assay [3].
